Read-outs that look alike come from different tables or passages of the source.
Molecular target: collagenase A (ColA) (Clostridium perfringens, UniProt P43153)
Assay: biochemical
Design: species or system C. perfringens
Conditions: for Inhibition (%) on ColA: after 30 min of incubation
[1] = read-out: Inhibition(%) on ColA
[2] = read-out: Inhibition (%) on ColA
[3] = 5 µM, mean ± SD of three replications
[4] = 100 µM, preliminary screening (Table S1), * = compound precipitated due to low solubility

collagenase A (ColA), sequence (P43153 87-1104 limits assumed): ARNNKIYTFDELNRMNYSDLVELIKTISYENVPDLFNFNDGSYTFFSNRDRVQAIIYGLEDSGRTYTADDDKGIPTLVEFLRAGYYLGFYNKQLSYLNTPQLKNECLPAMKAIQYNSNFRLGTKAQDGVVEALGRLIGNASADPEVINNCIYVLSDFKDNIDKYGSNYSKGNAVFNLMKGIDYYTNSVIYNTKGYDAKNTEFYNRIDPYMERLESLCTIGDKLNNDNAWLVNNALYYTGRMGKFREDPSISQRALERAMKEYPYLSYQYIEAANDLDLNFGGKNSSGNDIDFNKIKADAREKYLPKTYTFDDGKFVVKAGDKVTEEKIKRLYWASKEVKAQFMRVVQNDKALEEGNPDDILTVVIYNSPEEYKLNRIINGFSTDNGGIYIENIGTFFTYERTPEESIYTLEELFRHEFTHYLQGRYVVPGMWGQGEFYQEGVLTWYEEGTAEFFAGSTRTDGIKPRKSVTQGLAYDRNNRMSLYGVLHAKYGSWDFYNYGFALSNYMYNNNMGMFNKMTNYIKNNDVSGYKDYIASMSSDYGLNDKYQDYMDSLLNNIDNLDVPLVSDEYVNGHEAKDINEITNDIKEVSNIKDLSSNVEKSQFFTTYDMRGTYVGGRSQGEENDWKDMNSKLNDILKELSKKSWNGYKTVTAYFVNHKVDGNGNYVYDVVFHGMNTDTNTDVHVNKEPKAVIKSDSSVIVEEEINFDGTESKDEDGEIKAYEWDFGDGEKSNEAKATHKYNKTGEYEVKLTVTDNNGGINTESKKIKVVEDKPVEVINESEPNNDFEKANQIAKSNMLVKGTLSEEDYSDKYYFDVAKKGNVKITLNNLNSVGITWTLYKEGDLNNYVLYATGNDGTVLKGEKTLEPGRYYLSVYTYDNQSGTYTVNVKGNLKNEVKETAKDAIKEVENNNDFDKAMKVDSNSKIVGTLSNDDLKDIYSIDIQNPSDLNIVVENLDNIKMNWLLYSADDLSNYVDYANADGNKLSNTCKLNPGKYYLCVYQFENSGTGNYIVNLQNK

`CC(NS(=O)(=O)c1cccc(Cl)c1)C(=O)O` (racemic) [N-(3-chlorophenylsulfonyl)-DL-alanine] showed an inhibition at 100 µM [1] of -19.2%.
With `O=C(O)C1NCCc2c1[nH]c1ccccc21` (stereo not drawn) [1,2,3,4-tetrahydro-beta-carboline-1-carboxylic acid] the inhibition at 100 µM [1] was 1.5%.
`Nc1ccc2c(c1N)C(=O)c1ccccc1C2=O` [1,2-diaminoanthraquinone] showed an inhibition at 100 µM [1] of 4.3%.
`O=C1c2ccccc2C(=O)c2c(O)ccc(O)c21` [1,4-dihydroxyanthraquinone] showed an inhibition at 100 µM [1] of 3.2%.
In the case of `O=C(O)C1CCCN1S(=O)(=O)c1cccc(C(F)(F)F)c1` (stereo not shown) [1-{[3-(trifluoromethyl)phenyl]sulfonyl}-2-pyrrolidinecarboxylic acid], the inhibition at 100 µM [1] is reported as 0.7%.
For `O=C(/C=C/c1ccccc1)c1ccccc1O` [2′-Hydroxychalcone, 2′-hydroxychalcone], the “inhibitory effect on ColA (in words)” value was “potent inhibitory effect”, the “Inhibition (%) on ColA” value (100 µM, mean ± SD of three replications (five-dose assay)) was “Almost complete inhibition” and the inhibition at 1 µM [2] was -12.1 ± 0.2%. It also gave an inhibition at 5 µM [2] of 1.2 ± 0.9%, an inhibition at 10 µM [2] of 6.5 ± 1.3% and an inhibition at 50 µM [2] of 21.8 ± 1.2%. It also gave an inhibition at 100 µM [2] of 97.3 ± 1.3% and an inhibition at 100 µM [1] of 87.8%.
`O=c1c(O)c(-c2ccccc2)oc2ccc(O)cc12` [3,6-dihydroxyflavone] was tested, and the “inhibitory effect on ColA (in words)” value was “low inhibitory effects” and the inhibition at 100 µM [1] was 2.7%.
For `O=c1c(O)c(-c2ccccc2)oc2ccccc12` [3-Hydroxyflavone, 3-hydroxyflavone], the “inhibitory effect on ColA (in words)” value was “low impact on the enzyme activity”, the inhibition at 1 µM [2] was -13.4 ± 2.7% and the inhibition at 5 µM [2] was -17 ± 5.1%. It also gave an inhibition at 10 µM [2] of 17.4 ± 4.5%, an inhibition at 50 µM [2] of 25.1 ± 6.8% and an inhibition at 100 µM [2] of 31 ± 4.3%. It also gave an inhibition at 100 µM [1] of 27.6%.
`O=C(O)C=Cc1cccc(O)c1` [3-hydroxycinnamic acid] was tested, and the inhibition at 100 µM [1] was 0.8%.
`O=c1oc(-c2ccccc2)cc2ccccc12` [3-phenyl-1H-2-benzopyran-1-one] was tested, and the inhibition at 100 µM [1] was 0.2%.
In the case of `COc1ccc(-c2oc3ccccc3c(=O)c2O)cc1` [4'-methoxyflavonol, 4′-methoxyflavonol], the inhibition at 100 µM [1] is reported as 3.7%.
For `Oc1cc(O)nc(S)n1` [4,6-dihydroxy-2-mercaptopyrimidine], the inhibition at 100 µM [1] was -7.2%.
Work on `Cc1ccc(S(=O)(=O)NC(N)=O)cc1` [4-methylphenylsulfonylurea] yielded an inhibition at 100 µM [1] of 19.6%.
For `O=c1cc(-c2ccc(O)cc2)oc2cccc(O)c12` [4′,5-Dihydroxyflavone, 4′,5-dihydroxyflavone], the “IC50 (in words)” value was “nanomolar range”, the “inhibitory effect on ColA (in words)” value was “potently inhibits its activity” and the “Inhibition (%) on ColA” value [3] was “Almost complete inhibition”. It also gave an inhibition at 1 µM [2] of -48 ± 3.6%, an inhibition at 5 µM [2] of 101.6 ± 0.6% and an inhibition at 10 µM [2] of 107.5 ± 1%. It also gave an inhibition at 50 µM [2] of 101 ± 1.9%, an inhibition at 100 µM [2] of 105 ± 2.9% and an inhibition at 100 µM [1] of 15%.
In the case of `O=c1ccc2cc(O)ccc2o1` [6-hydroxycoumarin], the inhibition at 100 µM [1] is reported as 12.5%.
In the case of `COc1ccc2[nH]c3c(c2c1)CCNC3C(=O)O` (stereo not shown) [6-methoxy-1,2,3,4-tetrahydro-9H-pyrido [3,4-b]indole-1-carboxylic acid], the inhibition at 1 µM [2] is reported as -19.9 ± 2.7%, the inhibition at 5 µM [2] is reported as -1.3 ± 2.1% and the inhibition at 10 µM [2] is reported as -5.2 ± 0.7%. The inhibition at 50 µM [2] was 2.8 ± 1.3%, the inhibition at 100 µM [2] was 19.6 ± 3.9% and the inhibition at 100 µM [1] was 18.8%.
Compound `COc1ccc2oc(-c3ccccc3)c(O)c(=O)c2c1` [6-methoxyflavonol] has an inhibition at 100 µM [1] of 10.7%.
`COc1ccc(-c2coc3cc(O)cc(O)c3c2=O)cc1` [Biochanin A, biochanin A] was tested, and the “inhibitory effect on ColA (in words)” value was “potent inhibitory effect”, the “Inhibition (%) on ColA” value (50 µM, mean ± SD of three replications) was “Almost complete inhibition” and the inhibition at 1 µM [2] was -24.8 ± 5.3%. The inhibition at 5 µM [2] was 23 ± 2.6%, the inhibition at 10 µM [2] was 34.1 ± 2.2% and the inhibition at 50 µM [2] was 99.1 ± 1%. It also gave an inhibition at 100 µM [2] of 76.1 ± 0.7% and an inhibition at 100 µM [1] of 57.9%.
`COc1cc(CNC(=O)CCCC/C=C/C(C)C)ccc1O` [Capsaicin, capsaicin, reference compound] was tested, and the “IC50 (in words)” value was “nanomolar range”, the “Inhibition (%) on ColA” value (1 µM, mean ± SD of three replications, 1 µM) was 94.8 ± 0.8% and the “Inhibition (%) on ColA” value (1 µM, mean ± SD of three replications, listed as capsaicin, 1 µM) was “Almost complete inhibition”. The “Inhibition (%) on ColA” value [3] was 100.5 ± 0.8% and the “Inhibition (%) on ColA” value [4] was 87.9%.
For `NC(=O)NCCC[C@H](N)C(=O)O` [Citrulline, citrulline], the inhibition at 1 µM [2] was -4.3 ± 3.5%, the inhibition at 5 µM [2] was -14.1 ± 1.4% and the inhibition at 10 µM [2] was 27.8 ± 3%. The inhibition at 50 µM [2] was 24.3 ± 1.7%, the inhibition at 100 µM [2] was 7.2 ± 0.5% and the inhibition at 100 µM [1] was 6.8%.
In the case of `COc1cc(/C=C/C(=O)CC(=O)/C=C/c2ccc(O)c(OC)c2)ccc1O` [Curcumin, curcumin], the “inhibitory effect on ColA (in words)” value is reported as “very potent ColA inhibitor”, the “Inhibition (%) on ColA” value [3] is reported as “Almost complete inhibition” and the inhibition at 1 µM [2] is reported as -10 ± 3.9%. For the same compound, the inhibition at 5 µM [2] was 101.8 ± 0.6%, the inhibition at 10 µM [2] was 102.5 ± 0.8% and the inhibition at 50 µM [2] was 101.5 ± 0.4%. For the same compound, the inhibition at 100 µM [2] was 101.8 ± 0.7% and the inhibition at 100 µM [1] was 102%.
For `NC(=O)NCCC[C@H](NC(=O)OCC1c2ccccc2-c2ccccc21)C(=O)O` [Fmoc-L-citrulline], the “Inhibition (%) on ColA” value [4] was 20.8%.
Compound `C[C@H](N)C(=O)O` [L-alanine] has an inhibition at 100 µM [1] of 3.1%.
For `O=c1c(O)c(-c2cc(O)c(O)c(O)c2)oc2cc(O)cc(O)c12` [Myricetin, myricetin], the “inhibitory effect on ColA (in words)” value was “low inhibitory effect”, the inhibition at 1 µM [2] was -15.4 ± 2.7% and the inhibition at 5 µM [2] was -4.5 ± 1.1%. The inhibition at 10 µM [2] was -1 ± 1.1%, the inhibition at 50 µM [2] was 13.6 ± 0.6% and the inhibition at 100 µM [2] was 23.2 ± 2%. The inhibition at 100 µM [1] was 27.6%.
For `O=c1cc(-c2ccccc2)oc2cccc(O)c12` [Primuletin, primuletin], the “inhibitory effect on ColA (in words)” value was “low impact on the enzyme activity”, the inhibition at 1 µM [2] was -9.3 ± 1.7% and the inhibition at 5 µM [2] was -8.8 ± 2.1%. It also gave an inhibition at 10 µM [2] of -0.7 ± 1.3%, an inhibition at 50 µM [2] of 8.5 ± 2.1% and an inhibition at 100 µM [2] of 25.4 ± 1.8%. It also gave an inhibition at 100 µM [1] of 33.1%.
`O=C(O)c1cc(O)c2c(c1)C(=O)c1cccc(O)c1C2=O` [Rhein, rhein] was tested, and the “inhibitory effect on ColA (in words)” value was “potent inhibitors of ColA”, the inhibition at 1 µM [2] was 2.6 ± 0.6% and the inhibition at 5 µM [2] was 22.9 ± 2.7%. For the same compound, the inhibition at 10 µM [2] was 37.4 ± 3.2%, the inhibition at 50 µM [2] was 77.3 ± 2.2% and the inhibition at 100 µM [2] was 80.6 ± 1%. It also gave an inhibition at 100 µM [1] of 78.5%.
`CC(=O)NCCCS(=O)(=O)O` [acamprosate calcium, reference compound] showed an inhibition at 100 µM [1] of 17.2%.
`CC(=O)c1ccc(S(=O)(=O)NC(=O)NC2CCCCC2)cc1` [acetohexamide, reference compound] gave an inhibition at 100 µM [1] of 16.6%.
`CC(=O)N[C@@H](CS)C(=O)O` [acetylcysteine, reference compound] gave an inhibition at 100 µM [1] of 3.4%.
In the case of `O=C1c2c(O)cccc2C([C@@H]2O[C@H](CO)[C@@H](O)[C@H](O)[C@H]2O)c2cc(CO)cc(O)c21` (stereo partly shown) [aloin], the inhibition at 100 µM [1] is reported as 4.4%.
`O=c1cc(-c2ccc(O)cc2)oc2cc(O)cc(O)c12` [apigenin] showed an inhibition at 100 µM [1] of 2.7%.
`CC1CNc2c(cccc2S(=O)(=O)N[C@@H](CCCNC(=N)N)C(=O)N2CC[C@@H](C)C[C@@H]2C(=O)O)C1` (stereo partly shown) [argatroban, reference compound] gave an inhibition at 100 µM [1] of -12.3%.
In the case of `C[C@@H]1CC[C@H]2[C@@H](C)C(=O)O[C@@H]3O[C@@]4(C)CC[C@@H]1[C@]32OO4` [artemisinin, reference compound], the inhibition at 100 µM [1] is reported as 5.6%.
Work on `NS(=O)(=O)c1cc2c(cc1C(F)(F)F)NC(Cc1ccccc1)NS2(=O)=O` (stereo not shown) [bendroflumethiazide, reference compound] yielded an inhibition at 100 µM [1] of 21.6%.
`C/C(=C(\CCOP(=O)(O)O)SC(=O)c1ccccc1)N(C=O)Cc1cnc(C)nc1N` [benfotiamine, reference compound] showed an inhibition at 100 µM [1] of -20.4%.
In the case of `CCOC(=O)[C@H](CCCNC(=N)N)NC(=O)c1ccccc1.Cl` [benzoyl-L-arginine ethyl ester hydrochloride], the “Inhibition (%) on ColA” value [4] is reported as -6.6%.
`COc1ccc2cc3[n+](cc2c1OC)CCc1cc2c(cc1-3)OCO2` [berberine] gave an inhibition at 100 µM [1] of -2.5%.
`O=C(O)/C=C/c1ccc(O)c(O)c1` [caffeic acid] was tested, and the “inhibitory effect on ColA (in words)” value was “low effects” and the inhibition at 100 µM [1] was -3.8%.
`C[C@@]12C(=O)OC(=O)[C@]1(C)[C@H]1CC[C@@H]2O1` [cantharidin] showed an inhibition at 100 µM [1] of 26.8%.
Work on `C[C@H](CS)C(=O)N1CCC[C@H]1C(=O)O` [captopril, reference compound] yielded an inhibition at 100 µM [1] of 5.2%.
In the case of `O=C(/C=C/c1ccc(O)c(O)c1)O[C@@H]1C[C@](O)(C(=O)O)C[C@@H](O)[C@H]1O` [chlorogenic acid], the inhibition at 100 µM [1] is reported as 4.8%.
For `O=c1cc(-c2ccccc2)oc2cc(O)cc(O)c12` [chrysin], the “inhibitory effect on ColA (in words)” value was “low inhibitory effects” and the inhibition at 100 µM [1] was -3.4%.
`Cc1cc(O)c2c(c1)C(=O)c1cccc(O)c1C2=O` [chrysophanol] gave an inhibition at 100 µM [1] of -11.1%.
With `Cl.NCCS` [cysteamine hydrochloride, reference compound] the “Inhibition (%) on ColA” value [4] was 2.8%.
With `N[C@@H](CS)C(=O)O` [cysteine] the inhibition at 100 µM [1] was 1.7%.
In the case of `COc1ccc(-c2coc3cc(OC)ccc3c2=O)cc1` [daidzein dimethyl ether], the “Inhibition (%) on ColA” value [4] is reported as 15.7%.
For `O=c1c(-c2ccc(O)cc2)coc2cc(O)ccc12` [daidzein], the inhibition at 100 µM [1] was 5.8%.
`Oc1cc(O)c2c(c1)O[C@H](c1ccc(O)c(O)c1)[C@H](O)C2` [epicatechin] showed an inhibition at 100 µM [1] of 3.6%.
With `O=c1ccc2cc(O)c(O)cc2o1` [esculetin] the “inhibitory effect on ColA (in words)” value was “low effects” and the inhibition at 100 µM [1] was 11.8%.
Compound `CC(O)(P(=O)(O)O)P(=O)(O)O` [etidronic acid, reference compound] has an inhibition at 100 µM [1] of 23%.
`O=C(O)c1cc(O)c(O)c(O)c1` [gallic acid] showed an inhibition at 100 µM [1] of -21.4%.
For `O=c1c(-c2ccc(O)cc2)coc2cc(O)cc(O)c12` [genistein], the inhibition at 100 µM [1] was -1.1%.
`COc1cc(-c2oc3cc(O)cc(O)c3c(=O)c2O)ccc1O` [isorhamnetin] was tested, and the inhibition at 100 µM [1] was 19.9%.
For `Cc1cc(NC(=O)C2=C(O)c3ccccc3S(=O)(=O)N2C)no1` [isoxicam, reference compound], the inhibition at 100 µM [1] was -10.1%.
`O=C1C=C(O)C(=O)c2ccccc21` [lawsone] was tested, and the inhibition at 100 µM [1] was -6.1%.
`O=C(O)[C@@H](S)[C@@H](S)C(=O)O` [meso-2,3-dimercaptosuccinic acid, reference compound] showed an inhibition at 100 µM [1] of 25.6%.
